Experimental data: patent publication US20100216690A1, “Pegylated Single-Chain Insulin” (Novo Nordisk A/S, priority 2005, published 2010)

target: T1, human insulin receptor (IR) (Homo sapiens, UniProt P06213); assay: Binding affinity to the human insulin receptor relative to human insulin (SPA antibody capture assay); details: binding affinity to the human insulin receptor relative to that of human insulin
Description: The PEGylated single-chain insulins were tested for biological insulin activity as measured by binding affinity to the human insulin receptor (IR) relative to that of human insulin as described below.
Insulin receptor binding of the PEGylated single-chain insulins of the invention.
The affinity of the PEGylated, single-chain insulins the invention for the human insulin receptor is determined by a SPA assay (Scintillation Proximity Assay) microtiterplate antibody capture assay. SPA-PVT antibody-binding beads, anti-mouse reagent (Amersham Biosciences, Cat No. PRNQ0017) are mixed with 25 ml of binding buffer (100 mM HEPES pH 7.8; 100 mM sodium chloride, 10 mM MgSO4, 0.025% Tween-20). Reagent mix for a single Packard Optiplate (Packard No. 6005190) is composed of 2.4 μl of a 1:5000 diluted purified recombinant human insulin receptor—exon 11, an amount of a stock solution of A14 Tyr[125I]-human insulin corresponding to 5000 cpm per 100 μl of reagent mix, 12 μl of a 1:1000 dilution of F12 antibody, 3 ml of SPA-beads and binding buffer to a total of 12 ml. A total of 100 μl is then added and a dilution series is made from appropriate samples. To the dilution series is then added 100 μl of reagent mix and the samples were incubated for 16 hours while gently shaken. The phases are then separated by centrifugation for 1 min and the plates counted in a Topcounter. The binding data are fitted using the nonlinear regression algorithm in the GraphPad Prism 2.01 (GraphPad Software, San Diego, Calif.).
Target sequence in this assay (P06213 28-746 isoform P06213-2 limits assumed): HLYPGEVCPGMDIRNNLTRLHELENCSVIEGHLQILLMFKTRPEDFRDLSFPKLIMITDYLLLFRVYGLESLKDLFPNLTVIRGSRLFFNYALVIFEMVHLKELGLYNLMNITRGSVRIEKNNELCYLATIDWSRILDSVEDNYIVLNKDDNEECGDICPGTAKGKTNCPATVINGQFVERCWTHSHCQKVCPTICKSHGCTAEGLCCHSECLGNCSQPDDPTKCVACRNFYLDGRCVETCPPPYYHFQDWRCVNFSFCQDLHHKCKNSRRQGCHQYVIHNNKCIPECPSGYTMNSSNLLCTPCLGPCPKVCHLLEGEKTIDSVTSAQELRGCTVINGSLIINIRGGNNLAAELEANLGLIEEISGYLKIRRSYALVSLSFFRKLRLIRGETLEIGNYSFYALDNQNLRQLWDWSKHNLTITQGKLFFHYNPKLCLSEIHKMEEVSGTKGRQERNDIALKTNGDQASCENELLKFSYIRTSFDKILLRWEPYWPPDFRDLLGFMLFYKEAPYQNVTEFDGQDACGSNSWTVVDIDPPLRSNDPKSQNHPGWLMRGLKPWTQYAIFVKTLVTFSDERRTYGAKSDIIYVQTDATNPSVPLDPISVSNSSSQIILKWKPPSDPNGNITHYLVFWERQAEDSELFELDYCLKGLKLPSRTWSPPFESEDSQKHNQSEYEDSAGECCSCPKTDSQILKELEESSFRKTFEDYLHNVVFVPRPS
Target sequence in this assay (P06213 763-1382 partner limits assumed): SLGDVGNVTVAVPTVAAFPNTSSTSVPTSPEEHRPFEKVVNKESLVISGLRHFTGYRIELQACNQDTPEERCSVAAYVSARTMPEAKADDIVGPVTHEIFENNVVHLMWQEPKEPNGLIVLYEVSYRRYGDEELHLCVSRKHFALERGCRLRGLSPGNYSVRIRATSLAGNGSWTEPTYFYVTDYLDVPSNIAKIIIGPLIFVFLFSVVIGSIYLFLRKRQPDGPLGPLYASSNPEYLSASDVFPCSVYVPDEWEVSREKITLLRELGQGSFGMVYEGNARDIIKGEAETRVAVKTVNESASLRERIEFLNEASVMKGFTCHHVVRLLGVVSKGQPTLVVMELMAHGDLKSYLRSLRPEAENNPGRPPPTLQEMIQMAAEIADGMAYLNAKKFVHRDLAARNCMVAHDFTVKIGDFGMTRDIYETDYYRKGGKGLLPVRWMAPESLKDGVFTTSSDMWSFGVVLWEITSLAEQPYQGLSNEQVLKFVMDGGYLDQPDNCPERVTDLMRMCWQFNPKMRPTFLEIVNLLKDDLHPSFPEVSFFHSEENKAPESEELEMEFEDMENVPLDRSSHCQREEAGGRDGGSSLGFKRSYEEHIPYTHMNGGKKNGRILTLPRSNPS

Substance | IR binding in percent of human insulin
B(1-29)-B1(N^α-3-(mPEG2000-yl)propionyl)-B29A-VGLSSGQ-A(1-21)-A18Q Human Insulin [Example 8] | 8.1%
B(1-29)-B3K(N^ε-3-(mPEG2000-yl)propionyl)-B29A-VGLSSGQ-A(1-21)-A18Q Human Insulin [Example 7] | 4.5%
B(1-29)-B3Q-B29R-TGLGK(N^ε-3-(mPEG2000-yl)propionyl)GQ-A(1-21)-A18Q-A21G Human Insulin [Example 1] | 6.8%
B(1-29)-B22K(N^ε-3-(mPEG2000-yl)propionyl)-B29A-A18Q-VGLSSGQ-A(1-21) Human Insulin [Example 2] | 19.7%
B(1-29)-B29A-VGLSSGQ-A(1-21)-A8K(N^ε-3-(mPEG2000-yl)propionyl)-A18Q Human Insulin [Example 4] | 4.6%
B(1-29)-B29A-VGLSSGQ-A(1-22)-A18Q-A22K(N^ε-3-(mPEG2000-yl)propionyl) Human Insulin [Example 6] | 12%
B(1-29)-B29A-VK(N^ε-3-(mPEG2000-yl)propionyl)LSSGQ-A(1-21)-A18Q Human Insulin [Example 5] | 3.2%
B(1-29)-B29K(N^ε-3-(mPEG2000-yl-propionyl)-VGLSSGQ-A(1-21)-A18Q Human Insulin [Example 3] | 5.3%

target: T1, human insulin receptor (IR); assay: displacement of 125I-human insulin from human insulin receptor; affinity relative to human insulin; details: not given
Target sequence in this assay (P06213 other isoform, or with tags, fused parts or gaps limits assumed, form in doubt): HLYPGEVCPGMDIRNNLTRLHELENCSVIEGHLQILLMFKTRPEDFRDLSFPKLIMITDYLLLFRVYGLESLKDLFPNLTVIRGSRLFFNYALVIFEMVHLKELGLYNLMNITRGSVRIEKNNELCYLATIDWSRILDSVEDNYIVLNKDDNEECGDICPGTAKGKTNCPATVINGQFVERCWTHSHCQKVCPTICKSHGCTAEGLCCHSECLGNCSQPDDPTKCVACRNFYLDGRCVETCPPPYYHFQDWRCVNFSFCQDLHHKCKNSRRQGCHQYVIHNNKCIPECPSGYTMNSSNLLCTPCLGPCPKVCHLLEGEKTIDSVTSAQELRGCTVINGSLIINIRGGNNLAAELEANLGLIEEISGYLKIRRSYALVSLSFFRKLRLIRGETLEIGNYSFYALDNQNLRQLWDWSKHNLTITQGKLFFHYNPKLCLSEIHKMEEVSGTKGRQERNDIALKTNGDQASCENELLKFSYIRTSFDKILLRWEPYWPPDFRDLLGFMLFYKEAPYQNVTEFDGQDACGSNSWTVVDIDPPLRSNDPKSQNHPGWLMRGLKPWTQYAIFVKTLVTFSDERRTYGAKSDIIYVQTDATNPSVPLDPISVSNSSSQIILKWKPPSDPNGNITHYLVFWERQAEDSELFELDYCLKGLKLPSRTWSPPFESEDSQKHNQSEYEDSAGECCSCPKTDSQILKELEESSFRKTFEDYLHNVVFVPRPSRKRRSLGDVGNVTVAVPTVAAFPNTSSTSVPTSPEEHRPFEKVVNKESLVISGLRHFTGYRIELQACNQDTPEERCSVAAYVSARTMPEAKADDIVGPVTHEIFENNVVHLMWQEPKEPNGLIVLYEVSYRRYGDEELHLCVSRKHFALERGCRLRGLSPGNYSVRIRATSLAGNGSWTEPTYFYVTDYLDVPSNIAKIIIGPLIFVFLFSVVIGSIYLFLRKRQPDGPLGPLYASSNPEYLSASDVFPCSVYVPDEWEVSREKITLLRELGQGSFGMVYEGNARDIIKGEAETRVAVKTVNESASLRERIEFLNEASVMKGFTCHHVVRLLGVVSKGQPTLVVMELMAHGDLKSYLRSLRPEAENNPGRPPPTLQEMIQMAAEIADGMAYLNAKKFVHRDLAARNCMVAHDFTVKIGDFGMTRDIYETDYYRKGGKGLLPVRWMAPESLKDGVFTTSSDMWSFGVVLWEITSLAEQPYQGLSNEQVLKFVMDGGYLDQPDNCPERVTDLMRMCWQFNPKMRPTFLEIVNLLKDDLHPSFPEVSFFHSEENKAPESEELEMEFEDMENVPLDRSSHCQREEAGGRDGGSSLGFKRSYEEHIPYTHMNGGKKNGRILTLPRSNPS

IR binding in percent of human insulin | Substance
8.1% | B(1-29)-B1(N^α-3-(mPEG2000-yl)propionyl)-B29A-VGLSSGQ-A(1-21)-A18Q Human Insulin (from UniProt P01308 25-53; P01308 90-110) (ligand)
4.5% | B(1-29)-B3K(N^ε-3-(mPEG2000-yl)propionyl)-B29A-VGLSSGQ-A(1-21)-A18Q Human Insulin (from UniProt P01308 25-53; P01308 90-110) (ligand)
6.8% | B(1-29)-B3Q-B29R-TGLGK(N^ε-3-(mPEG2000-yl)propionyl)GQ-A(1-21)-A18Q-A21G Human Insulin (from UniProt P01308 25-53; P01308 90-110) (ligand)
19.7% | B(1-29)-B22K(N^ε-3-(mPEG2000-yl)propionyl)-B29A-A18Q-VGLSSGQ-A(1-21) Human Insulin (from UniProt P01308 25-53; P01308 90-110) (ligand)
4.6% | B(1-29)-B29A-VGLSSGQ-A(1-21)-A8K(N^ε-3-(mPEG2000-yl)propionyl)-A18Q Human Insulin (from UniProt P01308 25-53; P01308 90-110) (ligand)
12% | B(1-29)-B29A-VGLSSGQ-A(1-22)-A18Q-A22K(N^ε-3-(mPEG2000-yl)propionyl) Human Insulin (from UniProt P01308 25-53; P01308 90-110) (ligand)
3.2% | B(1-29)-B29A-VK(N^ε-3-(mPEG2000-yl)propionyl)LSSGQ-A(1-21)-A18Q Human Insulin (from UniProt P01308 25-53; P01308 90-110) (ligand)
5.3% | B(1-29)-B29K(N^ε-3-(mPEG2000-yl-propionyl)-VGLSSGQ-A(1-21)-A18Q Human Insulin (from UniProt P01308 25-53; P01308 90-110) (ligand)
